Measured values from patent US5202339A, “Hydantoin derivatives” (Mochida Pharmaceutical Co., Ltd., priority 1987, dated 1993).

Columns and labels:
[1] = molecular target: T1, bovine lens aldose reductase (Bos taurus, UniProt P16116); assay: inhibitory activity on bovine lens aldose reductase (Experimental Example 2); format: biochemical; conditions: for IC50: pH 6.2, 10 mM DL-glyceraldehyde, 0.16 mM NADPH; for potency compared with compound 13 and 15: in words
T1 construct: bovine lens aldose reductase preparation was used; from tissue; host or cells: bovine lens
Experimental: Assays were performed in 0.1M phosphate buffer (pH 6.2) containing 0.4M ammonium sulfate, 10 mM DL-glyceraldehyde, 0.16 mM nicotinamide adenine dinucleotide phosphate, reduced form (NADPH) and aldose reductase (0.010-0.016 units) in a total volume of 1.0 ml. To this mixture was added 10 μl of the solution of each hydantoin derivative to be tested, and the decrease in absorbance at 340 nm was measured with a spectrophotometer.

[2] = system: Streptozotocin-Diabetic Rats; assay: Hypoglycemic Effects in Streptozotocin-Diabetic Rats (Experimental Example 4); format: in vivo, rat (male Wistar); conditions: Rattus norvegicus; STZ-diabetic rats, 100 mg/kg oral, 6 hrs after administration; read-out: Lowering rate of serum glucose (%)
Experimental: Diabetic rats were produced according to the method of Junod et al. (A. Junod et al., J. Clin. Invest., 48, 2129 (1969)). Briefly, male Wistar rats were given 26.5 mg/kg of streptozotocin (STZ) intravenously. Four days later, the rats with serum glucose levels of between 400 and 500 mg/dl were used. After being fasted for 4 hrs, groups of 5 diabetic rats were orally administered with the compounds of the present invention or gliclazide in a dose of 100 mg/kg. Blood sample were collected from the orbital vein before and 6 hrs after the administration. Serum glucose levels were determined by the enzymatic method with an autoanalyzer (Cobas Fara®, Roche).

| Compound | IC50 [1] | inhibition in vivo at 100 mg/kg [2] | potency compared with compound 13 and 15 [1] |
| --- | --- | --- | --- |
| COc1c(S(=O)(=O)N2CC(=O)NC2=O)sc2ccccc12 [Compound 31, 1-(3-methoxybenzo[b]thiophen-2-yl-sulfonyl)hydantoin] | 0.27 µM | – | – |
| O=C1CN(S(=O)(=O)c2cc3ccc(Br)cc3o2)C(=O)N1 [Compound 52, 1-(6-bromobenzo[b]furan-2-ylsulfonyl)hydantoin] | – | 29% | – |
| O=C1CN(S(=O)(=O)c2cc3cc([N+](=O)[O-])ccc3s2)C(=O)N1 [Compound 42, 1-(5-nitrobenzo[b]thiophen-2-yl-sulfonyl)hydantoin] | 0.27 µM | – | – |
| O=C1CN(S(=O)(=O)c2cc(Br)c(Br)s2)C(=O)N1 [Compound 25, 1-(4,5-dibromothiophen-2-ylsulfonyl)hydantoin] | 0.26 µM | – | – |
| O=C1CN(S(=O)(=O)c2oc3c(F)cccc3c2Br)C(=O)N1 [Compound 49, 1-(3-bromo-7-fluorobenzo[b]furan-2-yl-sulfonyl)hydantoin] | – | 49.2% | – |
| O=C1CN(S(=O)(=O)c2cc3c(Br)cccc3o2)C(=O)N1 [Compound 51, 1-(4-bromobenzo[b]furan-2-ylsulfonyl)hydantoin] | – | 11% | – |
| O=C1CN(S(=O)(=O)c2cc3c(I)cccc3o2)C(=O)N1 [Compound 36, 1-(4-iodobenzo[b]furan-2-ylsulfonyl)hydantoin] | 0.24 µM | – | – |
| O=C1CN(S(=O)(=O)c2sc3ccccc3c2Cl)C(=O)N1 [Compound 17, 1-(3-chlorobenzo[b]thiophen-2-yl-sulfonyl)hydantoin] | 0.12 µM | – | as potent as compound 13 and 15 |
| O=C1CN(S(=O)(=O)c2cc3cccc(Cl)c3s2)C(=O)N1 [Compound 27, 1-(7-chlorobenzo[b]thiophen-2-yl-sulfonyl)hydantoin] | 0.19 µM | – | – |
| CC(C)c1c(S(=O)(=O)N2CC(=O)NC2=O)sc2ccccc12 [Compound 28, 1-(3-isopropylbenzo[b]thiophen-2-yl-sulfonyl)hydantoin] | 0.14 µM | – | – |
| O=C1CN(S(=O)(=O)c2cc3cccc(F)c3o2)C(=O)N1 [Compound 48, 1-(7-fluorobenzo[b]furan-2-ylsulfonyl)hydantoin] | – | 45.9% | – |
| O=C1CN(S(=O)(=O)c2oc3cc(Cl)cc(Cl)c3c2Br)C(=O)N1 [Compound 46, 1-(3-bromo-4,6-dichlorobenzo[b]furan-2-ylsulfonyl)hydantoin] | 0.054 µM | – | – |
| O=C1CN(S(=O)(=O)c2oc3cc(Br)ccc3c2Br)C(=O)N1 [Compound 54, 1-(3,6-dibromobenzo[b]furan-2-yl-sulfonyl)hydantoin] | – | 29% | – |
| CS(=O)(=O)c1c(S(=O)(=O)N2CC(=O)NC2=O)sc2ccccc12 [Compound 32, 1-(3-methylsulfonylbenzo[b]thiophen-2-ylsulfonyl)hydantoin] | 0.38 µM | – | – |
| O=C1CN(S(=O)(=O)c2cc3cc(Cl)ccc3s2)C(=O)N1 [Compound 18, 1-(5-chlorobenzo[b]thiophen-2-yl-sulfonyl)hydantoin] | 0.24 µM | – | as potent as compound 13 and 15 |
| O=C1CN(S(=O)(=O)c2ccc3oc(=O)ccc3c2)C(=O)N1 [Compound 23, 1-(coumarin-6-ylsulfonyl)hydantoin] | 0.22 µM | – | as potent as compound 13 and 15 |
| N#Cc1c(S(=O)(=O)N2CC(=O)NC2=O)sc2ccccc12 [Compound 33, 1-(3-cyanobenzo[b]thiophen-2-yl-sulfonyl)hydantoin] | 0.19 µM | – | – |
| O=C1CN(S(=O)(=O)c2sc3ccccc3c2Br)C(=O)N1 [Compound 30, 1-(3-bromobenzo[b]thiophen-2-yl-sulfonyl)hydantoin] | 0.12 µM | – | – |
| O=C1CN(S(=O)(=O)c2sc3ccccc3c2C(F)(F)F)C(=O)N1 [Compound 29, 1-(3-trifluoromethylbenzo[b]thiophen-2-ylsulfonyl)hydantoin] | 0.13 µM | – | – |
| O=C1CN(S(=O)(=O)c2cc3cc(C(=O)O)ccc3s2)C(=O)N1 [Compound 43, 1-(5-carboxybenzo[b]thiophen-2-yl-sulfonyl)hydantoin] | 0.4 µM | – | – |
